Two compounds from patent US20040214320A1, “Mammalian gamete and embryo culture media supplement and method of using same” (Vitrolife, Inc,, priority 2000, published 2004) can be followed below.

Holding throughout (type): cell-based
Test [1] relates to outbred mouse embryo. The test can be described thus: Outbred mouse embryo development in culture, fertilized eggs cultured 4 days (G1.2 48 h, then G2.2 48 h). The procedure:
Embryos were cultured at 37° C. in 6% CO2:5% O2:89% N2 in an embryo incubation volume of 10 embryos: 20 μl of medium. Embryos were cultured in medium G 1.2 for 48 h followed by 48 h of culture in medium G 2.2.
Initial experiments investigated replacing albumin purified from blood with HYN for outbred mouse embryo development in culture. Fertilized eggs were cultured for 4 days in one of 4 different concentrations of HYN. Embryos were cultured at 37° C. in 6% CO2:5% O2:89% N2 in an embryo incubation volume of 10 embryos: 20 μl of medium. Embryos were cultured in medium G1.2 for 48 h followed by 48 h of culture in medium G2.2. The negative control treatment was no protein.
Fertilized eggs were cultured for 4 days. Embryos were cultured at 37° C. in 6% CO2:5% O2:89% N2 in an embryo incubation volume of 10 embryos: 20 μl of medium. Embryos were cultured in medium G 1.2 for 48 h followed by 48 h of culture in medium G 2.2.
Embryos were cultured at 37° C. in 6% CO2:5% O2:89% N2 in an embryo incubation volume of 10 embryos: 20 μl of medium. Embryos were cultured in medium G1.2 for 48 h followed by 48 h of culture in medium G2.2.

Test [2] relates to cow embryos. The experiment in a line: Cow embryo development in culture, fertilized eggs cultured 6 to 7 days (G1.2 72 h, then G2.2 72 h). The following applies: Example 7, cow. The procedure: (§1) Fertilized eggs were cultured for 6 to 7 days. Embryos were cultured at 38.5° C. in 6% CO2:5% O2:89% N2 in 500 μl of medium. Embryos were cultured in medium G1.2 for 72 h followed by 72 h of culture in medium G2.2.
as §1
Fertilized eggs were cultured for 6 to 7 days. Embryos were cultured at 38.5° C. in 6% CO2:5% O2:89% N2 in 500 μl of medium. Embryos were cultured in medium G1.2 for 72 h, followed by 72 h of culture in medium G2.2. Blastocysts were either stained for cell numbers or frozen and subsequently thawed to assess survival.

The test system of test [3] is CF1 mouse blastocysts. The experiment in a line: Blastocyst attachment and outgrowth in culture following cryopreservation. The procedure: The ability of the blastocysts to outgrow in culture following cryopreservation was also assessed. The outgrowth of both the ICM and TE was scored between 0-3 where 0 represented no outgrowth and 3 represented extensive outgrowth.

The subject of test [4] is mouse embryo. The experiment in a line: Mouse embryo development in culture, 48 h in G1.2, with or without citrate. The procedure: Embryos were cultured at 37° C. in 6% CO2:5% O2:89% N2 in an embryo incubation volume of 10 embryos: 20 μl of medium. Embryos were cultured in medium G1.2 for 48 h.
Where [5] appears, read: HYN 0.125 mg/ml, no protein, 4 days culture.
Where [6] appears, read: HYN 0.5 mg/ml, no protein, 4 days culture.
Setting [7] is: HYN 1 mg/ml, no protein, 4 days culture.
Setting [8] is: citrate added to medium G1.2 with rHA and HYN.
The mark [9] stands for this setting: treatment +/+ (citrate in first 48 h / further 48 h), medium with rHA and HYN.
Where [10] appears, read: treatment +/− (citrate in first 48 h / further 48 h), medium with rHA and HYN.
[11] abbreviates: treatment −/+ (citrate in first 48 h / further 48 h), medium with rHA and HYN.

Marks after values point to notes of the source that are not given here.

Regarding hyaluronan [HYN], in test [1] (setting [5]), the “% ICM/Total” value is reported as 26.5 ± 0.6^ac %, the Blastocyst was 88.6^a, the “Cell Number” value was 79.6 ± 1.9^bc and the Hatching amounted to 57.1b^c. Further, in test [1] (setting [5]), the “ICM Number” value is on record as 21.2 ± 0.8^bc and the “TE Number” value was 58.7 ± 1.5^bc. Further, in test [1] (setting [6]), the “% ICM/Total” value was 28.3 ± 1.1^bc %, the Blastocyst was 100^a, the “Cell Number” value is 64.2 ± 1.9^ac and the Hatching is reported as 50^b. Besides, in test [1] (setting [6]), the “ICM Number” value is on record as 18.0 ± 0.7^ac and the “TE Number” value is given as 46.7 ± 2.0^a. Further, in test [1] (setting [7]), the “% ICM/Total” value is reported as 26.4 ± 0.9^ac %, the Blastocyst is 61.8^b, the “Cell Number” value is listed as 62.0 ± 2.7^ac and the Hatching is recorded as 23.5^a. Also, in test [1] (setting [7]), the “ICM Number” value is 17.5 ± 0.8^ac and the “TE Number” value is 49.1 ± 2.5^a. Also, the mouse embryo development entry in test [1] (concentrations from 0.125 to 0.5 mg/ml) is “stimulated”. Besides, the “Total Blastocyst Day 6” value in test [2] (day 6) is reported as 16.9^b. For the same compound, the “Total Blastocyst Day 7” value in test [2] (day 7) is listed as 30.4. The “development of the ICM (outgrowth) compared to human serum albumin” value in test [3] is listed as “increased”.
In the case of `O=C(O)CC(O)(CC(=O)O)C(=O)O` [citrate], in test [4] (setting [8]), the “% 8 cell” value is 81.1* %, the “% compacted” value was 12.2* % and the “Day 3 mean cell number” value was found to be 7.21 ± 0.13. The embryo development entry in test [4] (citrate added to medium containing rHA and fermented HYN) is listed as “significant increase”. Also, the embryo development result in test [1] (Example 6, citrate added to medium with rHA and HYN, 96 h) is recorded as “significantly increased”. In addition, in test [1] (setting [9]), the “% ICM/Total” value came to 30.4%, the “Cell Number” value was 100.7, the “Hatching (% of Total)” value came to 18.2% and the “Morula/Blastocyst (%)” value was 72.7%. Moreover, in test [1] (setting [9]), the “TE Number” value is 69.8 and the “Total Blastocyst (%)” value is given as 62.7%. For the same compound, in test [1] (setting [10]), the “% ICM/Total” value is given as 30.7%, the “Cell Number” value amounted to 112.6, the “Hatching (% of Total)” value is listed as 16.8% and the “ICM Number” value worked out at 34.9. Moreover, in test [1] (setting [10]), the “Morula/Blastocyst (%)” value is recorded as 71.3%, the “TE Number” value was 77.7 and the “Total Blastocyst (%)” value was 67.3%. In test [1] (setting [11]), the “% ICM/Total” value was 34.5%, the “Cell Number” value amounted to 94.8, the “Hatching (% of Total)” value was determined as 23.2% and the “ICM Number” value is on record as 33.4. In addition, in test [1] (setting [11]), the “Morula/Blastocyst (%)” value is given as 68.5%, the “TE Number” value stood at 61.44 and the “Total Blastocyst (%)” value is listed as 64.8%.
